Laboratory results as given in patent US7668586B2, “In vivo multiphoton diagnostic detection and imaging of a neurodegenerative disease” (Cornell Research Foundation, Inc., priority 2000, dated 2010).
Values belong to the compound of their own block, whether it stands above or below them.

Key:
pial arteriole = assay: Pial vessel reactivity, closed cranial window, vessel diameter measurement; details: 14-month-old Tg+ (four out of five, outlier excluded); ACh 10 and 25 μM, SNP 0.5 μM superfused
[1] = Fluorescent angiography after tail vein injection; details: injected into tail vein, at least 20 minutes prior to imaging
amyloid plaques = amyloid plaques (Homo sapiens, UniProt P05067); assay: In vivo multiphoton imaging of thioflavine S-positive amyloid; design: species or system Tg2576 mouse; details: dilute solution applied to brain, 750 nm 2-photon excitation
amyloid plaques, sequence (P05067 672-711 limits assumed): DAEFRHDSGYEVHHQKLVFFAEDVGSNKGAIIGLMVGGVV

Compound: CC(=O)OCC[N+](C)(C)C [ACh, Acetylcholine]
vessel dilation relative to control (non-transgenic) animals (pial arteriole): about 25%

crossing of the blood-brain barrier [1]: did not cross the blood-brain barrier
Compound: O=C1OC2(c3ccc(O)cc3Oc3cc(O)ccc32)c2ccccc21 [fluorescein]

Compound: Thioflavine S
depth to the surface of the cortex at which plaques were visualized (amyloid plaques): up to 150 μm
